Laboratory results as given in patent US12486287B2, “Solid forms of a promoter of spinogenesis” (Spinogenix, Inc., priority 2019, dated 2025).
≈ marks a conversion by molar mass, not a printed value. Values belong to the compound of their own block, whether it stands above or below them.

Columns and labels:
Format in all cases: physicochemical
[1] = Approximate solubility in single solvents at RT; settings: thermodynamic from solid, room temperature
Experimental: Approximate solubility of Compound I was determined in 20 single solvents at RT. Approximately 2 mg of powder sample was added into a 3-mL glass vial. Corresponding solvents were added stepwise (50 μL→100 μL→300 μL→1000 μL) into each vial until powder solids were completely dissolved visually or a total volume of 1 mL solvent was added. Approximate solubility values were calculated based on sample mass, solvent volume, and experimental observation. Results summarized in Table 3-1 were used to guide subsequent solvent selection in the design of polymorph screening experiments.

[2] = Solid state stability evaluation (XRPD, PLM, HPLC purity after storage); settings: for HPLC purity decrease after storage / Form change after storage (XRPD): 30° C./65% RH and 40° C./75% RH, open and closed; for Form change after storage (XRPD): up to 4 weeks; for Purity (Area %): HPLC; for Form Change: XRPD
Experimental: Agilent 1260 HPLC with VWD detector was utilized and detailed chromatographic conditions for purity analysis are listed ill Table 1-4.
The solid state stability of Compound I was evaluated under conditions of 30° C./65% RH (open dish and closed container) and 40° C./75% RH (open dish and closed container) for 4 weeks. The detailed procedures utilized for stability evaluation are listed: 1) Weighed about 10 mg of Compound I starting material into 3-mL glass vials; 2) For the open dish conditions, covered the vials with Parafilm® and poked 6 holes. For the closed conditions, sealed the vials with caps and kept the vials in the corresponding conditions, respectively; For the condition of 40° C./75% RH, placed the vials in the stability chamber of 40° C./75% RH; For the condition of 30° C./65% RH, placed the vials in the airtight atmosphere generated by saturated aqueous potassium iodide solution in 30° C. bio-chemical; 4) Samples taken for XRPD, PLM, and HPLC purity after 3 days, 1 week, 2 weeks and 4 weeks.
Solid state stability evaluation of Compound I Form I starting material was performed under conditions of 30° C./65% RH (closed and open) and 40° C./75% RH (closed and open). X-ray powder diffraction (XRPD), polarizing microscope (PLM) and HPLC purity were characterized at 4 sampling points (3 days, 1 week, 2 weeks, 4 weeks).
For the single crystal structure determination, 83 single crystal growth experiments were performed by different methods including slow evaporation, liquid vapor diffusion, slow cooling, heating-cooling and solvent-thermal synthesis. The stability evaluation experiments in 40° C./75% RH condition were performed using stability chamber, while the 30° C./65% RH condition was set up by saturated aqueous potassium iodide solution in 30° C. bio-chemical incubator.

[3] = Stability / interconversion of crystal forms (XRPD)
Experimental: Compound I was subjected to various crystallization conditions, including solid vapor diffusion, anti-solvent addition, liquid vapor diffusion, slow cooling, slurry conversion at various temperatures, temperature cycling, and slow evaporation. Crystalline forms of Compound I were analyzed by X-ray powder diffraction (XRPD), differential scanning calorimetry (DSC) and thermogravimetric analysis (TGA), while metastable forms were analyzed by XRPD. XRPD was performed with a Panalytical X'Pert3 Powder XRPD with a Si zero-background holder. The 2θ position was calibrated against a Panalytical Si reference standard disc.
Forms II and III only existed in the wet state and no solid was isolated for thermal analyses. Form V solids were obtained, however, Form V changed to Form I at around 50° C. upon drying in a vacuum oven. A summary of isolated forms and conditions is in Table 1-5 and Table 1-6.

[4] = Dynamic vapor sorption (DVS)
Experimental: DVS was measured via a SMS (Surface Measurement Systems) DVS Intrinsic. The relative humidity at 25° C. were calibrated against deliquescence point of LiCl, Mg(NO3)2 and KCl.
Compound I starting material was the delivered sample. The starting material was characterized by XRPD, thermo-gravimetric analysis (TGA), differential scanning calorimetry (DSC), PLM and dynamic vapor sorption (DVS).

[5] = 30° C./65% RH, closed container, 1 week
[6] = 30° C./65% RH, closed container, 2 weeks
[7] = 30° C./65% RH, closed container, 4 weeks
[8] = 30° C./65% RH, closed container, 3 days
[9] = 30° C./65% RH, open dish, 1 week
[10] = 30° C./65% RH, open dish, 2 weeks
[11] = 30° C./65% RH, open dish, 4 weeks
[12] = 30° C./65% RH, open dish, 3 days
[13] = 40° C./75% RH, closed container, 1 week
[14] = 40° C./75% RH, closed container, 2 weeks
[15] = 40° C./75% RH, closed container, 4 weeks
[16] = 40° C./75% RH, closed container, 3 days
[17] = 40° C./75% RH, open dish, 1 week
[18] = 40° C./75% RH, open dish, 2 weeks
[19] = 40° C./75% RH, open dish, 4 weeks
[20] = 40° C./75% RH, open dish, 3 days

solubility ([1]; organic solvent or mixture, 1,4-dioxane): > 32 mg/mL
solubility ([1]; organic solvent or mixture, 2-MeTHF): 20 to 40 mg/mL (≈ 49.6 to 99.1 mM)
solubility ([1]; organic solvent or mixture, Acetone): 6 to 18 mg/mL (≈ 14.9 to 44.6 mM)
solubility ([1]; organic solvent or mixture, Acetonitrile): 8 to 24 mg/mL (≈ 19.8 to 59.5 mM)
solubility ([1]; organic solvent or mixture, CPME): < 2.6 mg/mL
solubility ([1]; organic solvent or mixture, DCM): > 38 mg/mL
solubility ([1]; organic solvent or mixture, DMF): > 44 mg/mL
solubility ([1]; organic solvent or mixture, DMSO): 18 to 36 mg/mL (≈ 44.6 to 89.2 mM)
solubility ([1]; organic solvent or mixture, EtOAc): 20 to 40 mg/mL (≈ 49.6 to 99.1 mM)
solubility ([1]; organic solvent or mixture, EtOH): 7.3 to 22 mg/mL (≈ 18.1 to 54.5 mM)
solubility ([1]; organic solvent or mixture, Heptane): < 2.2 mg/mL
solubility ([1]; organic solvent or mixture, IPA): < 1.9 mg/mL
solubility ([1]; organic solvent or mixture, IPAc): 1.7 to 5.7 mg/mL (≈ 4.21 to 14.1 mM)
solubility ([1]; organic solvent or mixture, MEK): 18 to 36 mg/mL (≈ 44.6 to 89.2 mM)
solubility ([1]; organic solvent or mixture, MIBK): 2.5 to 8.3 mg/mL (≈ 6.2 to 20.6 mM)
solubility ([1]; organic solvent or mixture, MTBE): < 2 mg/mL
solubility ([1]; organic solvent or mixture, MeOH): 21 to 42 mg/mL (≈ 52 to 104 mM)
solubility ([1]; organic solvent or mixture, THF): > 36 mg/mL
solubility ([1]; organic solvent or mixture, Toluene): 6 to 18 mg/mL (≈ 14.9 to 44.6 mM)
solubility ([1]; water, H2O): < 1.8 mg/mL
Form change after storage (XRPD) [2]: no form change was observed
SMILES: OCCOCCOCCOCCOc1ccc(-c2nc3ccccc3s2)cc1 [Compound I, 2-(2-(2-(2-(4-(benzo[d]thiazol-2-yl)phenoxy)ethoxy)ethoxy)ethoxy)ethan-1-ol]
HPLC purity decrease after storage ([2]; 4 weeks): no significant HPLC purity decrease was observed

SMILES: OCCOCCOCCOCCOc1ccc(-c2nc3ccccc3s2)cc1 [Compound I Form II, 2-(2-(2-(2-(4-(benzo[d]thiazol-2-yl)phenoxy)ethoxy)ethoxy)ethoxy)ethan-1-ol]
Stability of crystal form (conversion on storage, air exposure or drying) ([3]; listed as Form II): changed to a mixture of Form II and C or a mixture of Form III and Form V upon storage

SMILES: OCCOCCOCCOCCOc1ccc(-c2nc3ccccc3s2)cc1 [Compound I Form V, 2-(2-(2-(2-(4-(benzo[d]thiazol-2-yl)phenoxy)ethoxy)ethoxy)ethoxy)ethan-1-ol]
Stability of crystal form (conversion on storage, air exposure or drying) ([3]; listed as Form V): converted to Form I upon vacuum drying at ˜50 °C

Form change after DVS test (XRPD) ([4]; 25° C., 0% RH-95% RH-0% RH): No form change was observed
Water uptake (DVS) ([4]; 25° C./80% RH): 0.64%
Water uptake (DVS) ([4]; 25° C./95% RH): 21.43%
Form change after storage (XRPD) [2]: No form change
Purity/Initial (%) [2, 5]: 100.0%
Purity (Area %) [2, 5]: 99.66 Area %
Form Change [2, 5]: No
Purity/Initial (%) [2, 6]: 100.0%
Purity (Area %) [2, 6]: 99.64 Area %
Form Change [2, 6]: No
Purity/Initial (%) [2, 7]: 100.0%
Purity (Area %) [2, 7]: 99.66 Area %
Form Change [2, 7]: No
Purity/Initial (%) [2, 8]: 100.0%
Purity (Area %) [2, 8]: 99.68 Area %
Form Change [2, 8]: No
Purity/Initial (%) [2, 9]: 100.0%
Purity (Area %) [2, 9]: 99.66 Area %
Form Change [2, 9]: No
Purity/Initial (%) [2, 10]: 100.0%
Purity (Area %) [2, 10]: 99.63 Area %
Form Change [2, 10]: No
Purity/Initial (%) [2, 11]: 100.0%
Purity (Area %) [2, 11]: 99.66 Area %
Form Change [2, 11]: No
Purity/Initial (%) [2, 12]: 100.0%
Purity (Area %) [2, 12]: 99.69 Area %
Form Change [2, 12]: No
Purity/Initial (%) [2, 13]: 100.0%
Purity (Area %) [2, 13]: 99.66 Area %
Form Change [2, 13]: No
Purity/Initial (%) [2, 14]: 99.8%
Purity (Area %) [2, 14]: 99.45 Area %
Form Change [2, 14]: No
Purity/Initial (%) [2, 15]: 100.0%
Purity (Area %) [2, 15]: 99.65 Area %
Form Change [2, 15]: No
Purity/Initial (%) [2, 16]: 100.1%
Purity (Area %) [2, 16]: 99.76 Area %
Form Change [2, 16]: No
Purity/Initial (%) [2, 17]: 100.0%
Purity (Area %) [2, 17]: 99.66 Area %
Form Change [2, 17]: No
Purity/Initial (%) [2, 18]: 100.0%
Purity (Area %) [2, 18]: 99.63 Area %
Form Change [2, 18]: No
Purity/Initial (%) [2, 19]: 100.0%
Purity (Area %) [2, 19]: 99.65 Area %
Form Change [2, 19]: No
Purity/Initial (%) [2, 20]: 99.9%
Purity (Area %) [2, 20]: 99.61 Area %
Form Change [2, 20]: No
SMILES: OCCOCCOCCOCCOc1ccc(-c2nc3ccccc3s2)cc1 [Compound I Form I, 2-(2-(2-(2-(4-(benzo[d]thiazol-2-yl)phenoxy)ethoxy)ethoxy)ethoxy)ethan-1-ol]
HPLC purity decrease after storage ([2]; 4 weeks): No form change and significant HPLC purity decrease were observed

SMILES: OCCOCCOCCOCCOc1ccc(-c2nc3ccccc3s2)cc1 [Compound I Form III, 2-(2-(2-(2-(4-(benzo[d]thiazol-2-yl)phenoxy)ethoxy)ethoxy)ethoxy)ethan-1-ol]
Stability of crystal form (conversion on storage, air exposure or drying) ([3]; listed as Form III): quickly converted to Form I upon exposure to open air
